The source of these data is ChEMBL document CHEMBL3045124, “Molecular docking and in silico studies on analogues of 2-methylheptyl isonicotinate with DHDPS enzyme of Mycobacterium tuberculosis” (2013).

Values after ≈ are worked out from the molar mass of the structure shown.

Assay type in all cases: functional
The test system of assay [1] is Bacillus subtilis. In words: Antibacterial activity against Bacillus subtilis.
In assay [2] the test system is Escherichia coli. In words: Antibacterial activity against Escherichia coli.
Assay [3] relates to Proteus vulgaris. In words: Antimicrobial activity against Proteus vulgaris.
Assay [4] concerns Mycobacterium tuberculosis. Kind of assay: Antitubercular activity against Mycobacterium tuberculosis.
The test system of assay [5] is Klebsiella sp. Kind of assay: Antibacterial activity against Klebsiella sp. after 24 hr by agar cup assay.
Assay [6] relates to Shigella sp. In words: Antibacterial activity against Shigella sp. after 24 hr by agar cup assay.
Assay [7] relates to Arthrobacter sp. Kind of assay: Antibacterial activity against Arthrobacter sp. after 24 hr by agar cup assay.
In assay [8] the test system is Proteus mirabilis. In words: Antibacterial activity against Proteus mirabilis after 24 hr by agar cup assay.
In assay [9] the test system is Escherichia coli. Kind of assay: Antibacterial activity against Escherichia coli after 24 hr by agar cup assay.
In assay [10] the test system is Bacillus subtilis. Kind of assay: Antibacterial activity against Bacillus subtilis after 24 hr by agar cup assay.

Turning to `CCCCCOC(=O)c1ccncc1` [ISONICOTINIC ACID PENTYL ESTER], the MIC in assay [1] came to 20 µg/mL (≈ 103 µM); in assay [2], 20 µg/mL (≈ 103 µM); in [3], 14 µg/mL (≈ 72.4 µM); in assay [4], 10 µg/mL (≈ 51.7 µM).
For the compound `NNC(=O)c1ccncc1` [ISONIAZID], the MIC was found to be 250 µg/mL (≈ 1820 µM) in assay [5]; 300 µg/mL (≈ 2190 µM) in [6]; 150 µg/mL (≈ 1090 µM) in assay [7]; 200 µg/mL (≈ 1460 µM) in assay [8]; 2520 µg/mL (≈ 18400 µM) in [9]; 150 µg/mL (≈ 1090 µM) in [10].
As for `CCCCCCCCOC(=O)c1ccncc1` [ISONICOTINIC ACID OCTYL ESTER], the minimum inhibitory concentration (MIC) in assay [1] was found to be 16 µg/mL (≈ 68 µM); in [2], 16 µg/mL (≈ 68 µM); in assay [3], 6 µg/mL (≈ 25.5 µM); in [4] it was 8 µg/mL (≈ 34 µM).
On to `CCCCCCCCCCCCCCCCCCOC(=O)c1ccncc1` [ISONICOTINIC ACID OCTADECYL ESTER], for which the MIC was 600 µg/mL (≈ 1600 µM) in assay [1], 600 µg/mL (≈ 1600 µM) in assay [2], 560 µg/mL (≈ 1490 µM) in assay [3] and 320 µg/mL (≈ 852 µM) in assay [4].
With `CCCCCC(C)COC(=O)c1ccncc1` (centres undefined) [2-METHYL HEPTYL ISONICOTINATE], the minimal inhibitory concentration (MIC) in assay [5] stood at 50 µg/mL (≈ 212 µM); in assay [6], 60 µg/mL (≈ 255 µM); in assay [7] it was 40 µg/mL (≈ 170 µM); in assay [8], 40 µg/mL (≈ 170 µM); in [9], 70 µg/mL (≈ 297 µM); in assay [10], 50 µg/mL (≈ 212 µM).
Turning to `CCCCCCOC(=O)c1ccncc1` [ISONICOTINIC ACID HEXYL ESTER], the MIC in assay [1] came to 50 µg/mL (≈ 241 µM); in [2] it was 50 µg/mL (≈ 241 µM); in assay [3], 36 µg/mL (≈ 174 µM); in [4] it was 24 µg/mL (≈ 116 µM).
Regarding `CCCCC[C@H](C)COC(=O)c1ccncc1` [(S)-2-METHYLHEPTYL ISONICOTINATE], the minimum inhibitory concentration (MIC) in [1] worked out at 20 µg/mL (≈ 85 µM); in assay [2], 20 µg/mL (≈ 85 µM); in [3], 14 µg/mL (≈ 59.5 µM); in [4], 14 µg/mL (≈ 59.5 µM).
Regarding `CCCCC[C@@H](C)COC(=O)c1ccncc1` [ISONICOTINIC ACID 2-METHYL-HEPTYL ESTER], the minimal inhibitory concentration (MIC) in assay [1] turned out to be 16 µg/mL (≈ 68 µM); in assay [2], 16 µg/mL (≈ 68 µM); in assay [3], 6 µg/mL (≈ 25.5 µM); in [4], 10 µg/mL (≈ 42.5 µM).
Consider `CCCCOC(=O)c1ccncc1` [ISONICOTINIC ACID BUTYL ESTER], for which the minimal inhibitory concentration (MIC) amounted to 600 µg/mL (≈ 3350 µM) in assay [1], 600 µg/mL (≈ 3350 µM) in assay [2], 500 µg/mL (≈ 2790 µM) in assay [3] and 280 µg/mL (≈ 1560 µM) in assay [4].
Regarding `CCCCCCCOC(=O)c1ccncc1` [ISONICOTINIC ACID HEPTYL ESTER], the MIC in assay [1] worked out at 24 µg/mL (≈ 108 µM); in [2], 24 µg/mL (≈ 108 µM); in assay [3], 16 µg/mL (≈ 72.3 µM); in [4], 16 µg/mL (≈ 72.3 µM).

In general, MIC refers to the least concentration at which growth counts as inhibited. The low end stands for greater potency, the high end for weaker potency.
